According to patent US20160212997A1, “AGRICULTURAL CHEMICALS” (REDAG CROP PROTECTION LTD, priority 2013, published 2016):
Read-outs that look alike come from different tables or passages of the source.

Key:
Type in all cases: in vivo
aphids, Myzus persicae = assay: Potter tower spray on aphids, knockdown and mortality; conditions: Aphids; for pest or weed control at 0.1 % strength: Myzus persicae, 0.1 % w/v, read-out: Average of % corrected affected
Summary of the method: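 Ten aphids (mixed sex and age) per Petri dish on a leaf disc were sprayed by Potter tower with compounds at five concentrations in DMSO. Knockdown and mortality were scored at 24 and 48 hours, five replicates per treatment, alongside carrier-only and untreated controls.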

[1] = system: red spider mites, Tetranychus urticae; assay: Potter tower spray on red spider mites, knockdown and mortality; conditions: for percentage control: Spider mites
Excerpt: The compounds were screened for insecticidal efficacy against aphids, Myzus persicae, Cabbage moth, Mamestra brassicae, diamond black moths, Plutella xylostella, red spider mites, Tetranychus urticae, whitefly, Trialeurodes vaporariorum, in terms of knockdown and mortality.
Myzus persicae, Cabbage moth, Mamestra brassicae, diamond back moths, Plutella xylostella, red spider mites, Tetranychus urticae, whitefly, Trialeurodes vaporariorum, were obtained from specified laboratory cultures. Mixed sex and age aphids and mites, moth larvae and whitefly scale infested leaves were used in the experiments. Environmental conditions were closely monitored and recorded and were within the optimal range of the target species.
The compounds were screened at a range of five concentrations, diluted in DMSO. Some of the compounds were screened against aphids, whitefly and red spider mites and other compounds were screened against cabbage moth, and diamond black moths. A carrier only and an untreated control will also be conducted. Treatments were applied directly onto the insects within Petri dishes, using a potter tower.
Twenty mites and ten aphids, scales and moth larvae were placed within a Petri dish, lined with a suitable leaf disc on a damp cotton wool pad. Scales were already on leaves. The Petri dishes were then sprayed using a potter tower. The number of knocked down and anthropods were assessed at 24 and 48 hours post treatment. Five replicates were be performed for each treatment, for each species.

[2] = system: caterpillars, a mixture of Mamestra brassicae and Lacanobia oleracea; assay: Potter tower spray on caterpillars, knockdown and mortality; conditions: Caterpillars, read-out: Average of % corrected affected; for pest or weed control at 0.1 % strength: 0.1 % w/v
Summary of the method: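 Mixed Mamestra brassicae and Lacanobia oleracea larvae (ten per dish, on leaf disc over damp cotton wool) sprayed directly with a Potter tower at five concentrations in DMSO containing 1% v/v Tween 20, alongside carrier-only and untreated controls. Knockdown and mortality scored at 24 and 48 h post treatment; five replicates per treatment.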

[3] = 24 h, 24 hours post application
[4] = 48 h, 48 hours post application

CC(c1ccc(C(F)(F)F)nc1)S(C)(=O)=NS(C)(=O)=O (centres unmarked) [Compound 14, N-[methyl-oxo-[1-[6-(trifluoromethyl)-3-pyridyl]ethyl]-λ^6-sulfanylidene]methane-sulfonamide]
percentage control (aphids, Myzus persicae; 12.5 g/ha, 24 h): E (A percentage control of from 1 to 19 is indicated by the letter E)
percentage control (aphids, Myzus persicae; 12.5 g/ha, 48 h): D (A percentage control of from 20 to 39 is indicated by the letter D)
percentage control (aphids, Myzus persicae; 25 g/ha, 24 h): E (A percentage control of from 1 to 19 is indicated by the letter E)
percentage control (aphids, Myzus persicae; 25 g/ha, 48 h): E (A percentage control of from 1 to 19 is indicated by the letter E)
percentage control (aphids, Myzus persicae; 50 g/ha, 24 h): E (A percentage control of from 1 to 19 is indicated by the letter E)
percentage control (aphids, Myzus persicae; 50 g/ha, 48 h): D (A percentage control of from 20 to 39 is indicated by the letter D)
percentage control (aphids, Myzus persicae; 100 g/ha, 24 h): E (A percentage control of from 1 to 19 is indicated by the letter E)
percentage control (aphids, Myzus persicae; 100 g/ha, 48 h): D (A percentage control of from 20 to 39 is indicated by the letter D)
percentage control (aphids, Myzus persicae; 200 g/ha, 24 h): E (A percentage control of from 1 to 19 is indicated by the letter E)
percentage control (aphids, Myzus persicae; 200 g/ha, 48 h): D (A percentage control of from 20 to 39 is indicated by the letter D)
pest or weed control at 0.1 % strength (aphids, Myzus persicae; [3]): 20 to 39%
pest or weed control at 0.1 % strength (aphids, Myzus persicae; [4]): 20 to 39%
percentage control ([1]; 12.5 g/ha, 24 h): D (A percentage control of from 20 to 39 is indicated by the letter D)
percentage control ([1]; 12.5 g/ha, 48 h): C (A percentage control of from 40 to 59 is indicated by the letter C)
percentage control ([1]; 25 g/ha, 24 h): C (A percentage control of from 40 to 59 is indicated by the letter C)
percentage control ([1]; 25 g/ha, 48 h): C (A percentage control of from 40 to 59 is indicated by the letter C)
percentage control ([1]; 50 g/ha, 24 h): D (A percentage control of from 20 to 39 is indicated by the letter D)
percentage control ([1]; 50 g/ha, 48 h): C (A percentage control of from 40 to 59 is indicated by the letter C)
percentage control ([1]; 100 g/ha, 24 h): C (A percentage control of from 40 to 59 is indicated by the letter C)
percentage control ([1]; 100 g/ha, 48 h): B (A percentage control of from 60 to 79 is indicated by the letter B)
percentage control ([1]; 200 g/ha, 24 h): B (A percentage control of from 60 to 79 is indicated by the letter B)
percentage control ([1]; 200 g/ha, 48 h): B (A percentage control of from 60 to 79 is indicated by the letter B)
activity against spider mites compared with the reference compound ([1]; versus flupyradifurone or sulfoxaflor respectively, tables 1 and 3): more active than the reference compound
pest or weed control at 0.1 % strength [2, 3]: 1 to 19%
pest or weed control at 0.00625 % strength ([2]; 48 h, 0.00625 % w/v, 48 hours post application): 1 to 19%
pest or weed control at 0.0125 % strength ([2]; 48 h, 0.0125 % w/v, 48 hours post application): 1 to 19%
pest or weed control at 0.025 % strength ([2]; 48 h, 0.025 % w/v, 48 hours post application): 1 to 19%
pest or weed control at 0.05 % strength ([2]; 48 h, 0.05 % w/v, 48 hours post application): 1 to 19%
pest or weed control at 0.1 % strength [2, 4]: 1 to 19%
